The values that follow come from ChEMBL document CHEMBL3046410, “Antioxidant activities and transition metal ion chelating studies of some hydroxyl Schiff base derivatives” (Med Chem Res, 2012).

One may read the pIC50 as −log10 of the IC50, conventionally taken in molar units.

pIC50: −log10 of the molar value. Activity calls are given as the source filed them. The rule behind the calls is not given here.

Data set [1] can be described thus: Antioxidant activity assessed as inhibition of ABTS free radical. In kind it is functional.
Data set [2] relates to Radical scavenging activity. Put plainly: Antioxidant activity assessed as inhibition of DPPH free radical. In kind it is functional. A general note: DPPH is a stable violet radical that fades when it is reduced.
A short description of data set [3]: Antioxidant activity assessed as Cu2+ quenching activity. The format is functional.
Data set [4] in a line: Antioxidant activity assessed as Fe2+ quenching activity. In kind it is functional.
A short description of data set [5]: Binding affinity to Fe2+.
The nature of data set [6]: Binding affinity to Cu2+. The format is physicochemical.
The nature of data set [7]: Antioxidant activity assessed as Fe2+ chelating activity by fluorescence spectroscopy. In kind it is functional.
The nature of data set [8]: Antioxidant activity assessed as Cu2+ chelating activity by fluorescence spectroscopy. In kind it is functional.

As to `Oc1cccc(/N=C/c2ccccc2O)c1`, the values for the pIC50 in data set [1] and in data set [2] were 5.43 and 3.39, respectively. The KSV came out at 1.1 ×10⁵ /M in data set [3] and 2.61 ×10⁴ /M in data set [4]. Besides, the figures for the Ka in data set [5] and in data set [6] were 3.21 ×10³ /M and 3.02 ×10³ /M, respectively.

For `Oc1ccc(/N=C/C=C/c2ccccc2)cc1`, the pIC50 in data set [1] is 5.31; in data set [2] it was 3.40. Further, the KSV in data set [3] is 2.49 ×10³ /M; in data set [4] it was 6.6 ×10³ /M. Also, the Ka came to 2.47 ×10⁴ /M in data set [5] and 1.45 ×10⁴ /M in data set [6].

On to `CN(C)c1ccc(/C=N/c2ccccc2O)cc1`, for which the pIC50 in data set [1] is 5.15; in data set [2], 4.97. Further, the KSV was 1.53 ×10⁴ /M in data set [3] and 5.19 ×10³ /M in data set [4]. Further, the Ka in data set [5] was 7.3 ×10⁴ /M; in data set [6] it was 2.36 ×10⁴ /M.

As for `Cc1cc(C(C)(C)C)c(O)c(C(C)(C)C)c1` [BUTYLATED HYDROXYTOLUENE], the pIC50 in data set [1] is 4.43; in data set [2] it was 4.18.

For the compound `Oc1ccccc1/C=N/c1ccccc1O`, the pIC50 in data set [1] is 5.29; in data set [2] it was 4.60. In addition, the outcome in data set [7] and in data set [8] was Active. The KSV amounted to 6.07 ×10⁴ /M in data set [3] and 6.7 ×10⁴ /M in data set [4]. For the same compound, the figures for the Ka in data set [5] and in data set [6] were 6.48 ×10³ /M and 1.26 ×10⁴ /M, respectively.

For `Oc1cccc(/N=C/c2ccccc2)c1` [3-(BENZYLIDENEAMINO)PHENOL], the pIC50 is 4.48 in data set [1] and 3.33 in data set [2]. For the same compound, the values for the KSV in data set [3] and in data set [4] were 5.2 ×10³ /M and 7.03 ×10³ /M, respectively. Moreover, the Ka in data set [5] worked out at 1.47 ×10⁴ /M; in data set [6], 1.39 ×10⁴ /M.

In the case of `CN(C)c1ccc(/C=N/c2ccc(O)cc2)cc1`, the values for the pIC50 in data set [1] and in data set [2] were 5.38 and 4.68, respectively. The figures for the KSV in data set [3] and in data set [4] were 2.69 ×10⁴ /M and 7.4 ×10³ /M, respectively. The Ka in data set [5] came to 5.03 ×10³ /M; in data set [6], 3.05 ×10³ /M.

As to `Oc1cccc(/N=C/C=C/c2ccccc2)c1`, the figures for the negative-log IC50 (pIC50) in data set [1] and in data set [2] were 5.40 and 3.84, respectively. Further, the KSV in data set [3] worked out at 2.8 ×10³ /M; in data set [4], 8.91 ×10³ /M. In addition, the Ka was 6.25 ×10³ /M in data set [5] and 3.51 ×10³ /M in data set [6].

`Oc1ccc(/N=C/c2ccco2)cc1`: the pIC50 in data set [1] was 5.21; in data set [2] it was 4.30. Also, the values for the KSV in data set [3] and in data set [4] were 1.17 ×10³ /M and 0.9 ×10³ /M, respectively. The Ka in data set [5] was 1.81 ×10³ /M; in data set [6], 0.85 ×10³ /M.

With `Oc1ccc(/N=C/c2ccccc2)cc1` [4-(BENZYLIDENEAMINO)PHENOL], the pIC50 in data set [1] is 5.22; in data set [2] it was 4.15. Besides, the KSV in data set [3] is 3.49 ×10³ /M; in data set [4] it was 4.09 ×10³ /M. Moreover, the Ka in data set [5] came out at 1.62 ×10⁴ /M; in data set [6] it was 3.17 ×10³ /M.

Take `Oc1ccc(/N=C/c2ccccc2O)cc1`: the negative-log IC50 (pIC50) was 5.33 in data set [1] and 3.97 in data set [2]. Also, the KSV is 7.21 ×10⁴ /M in data set [3] and 1.43 ×10⁵ /M in data set [4]. The Ka in data set [5] was 9.67 ×10³ /M; in data set [6], 4.43 ×10³ /M.
